We go through 22 compounds from US9409866B2, “Pyridine-2-amides useful as CB2 agonists” (Hoffmann-La Roche Inc., priority 2012, dated 2016).

The term pEC50 denotes the negative decadic logarithm of the EC50, by convention in mol/L. The term EC50 denotes the concentration that produces a half-maximal response. Read a low EC50 as higher potency in that assay.

pEC50: −log10 of the molar value. Like-named read-outs stand apart in the source and are kept apart here.

One assay has as its target human CB2 receptors (Homo sapiens (Human), UniProt P34972). In words: functional cAMP assay, CHO cells expressing human CB2. The class given is cell-based. To be noted: for pEC50: read-out: Human CB2 EC50; for EC50: Human CB2 EC50 (uM). The method, then:
(§1) CHO cells expressing human CB1 or CB2 receptors are seeded 17-24 hours prior to the experiment 50.000 cells per well in a black 96 well plate with flat clear bottom (Corning Costar #3904) in DMEM (Invitrogen No. 31331), 1×HT supplement, with 10% fetal calf serum and incubated at 5% CO2 and 37° C. in a humidified incubator. The growth medium was exchanged with Krebs Ringer Bicarbonate buffer with 1 mM IBMX and incubated at 30° C. for 30 min. Compounds were added to a final assay volume of 100 μl and incubated for 30 min at 30° C. Using the cAMP-Nano-TRF detection kit the assay (Roche Diagnostics) was stopped by the addition of 50 μl lysis reagent (Tris, NaCl, 1.5% Triton X100, 2.5% NP40, 10% NaN3) and 50 μl detection solutions (20 μM mAb Alexa700-cAMP 1:1, and 48 μM Ruthenium-2-AHA-cAMP) and shaken for 2 h at room temperature. The time-resolved energy transfer is measured by a TRF reader (Evotec Technologies GmbH), equipped with a ND:YAG laser as excitation source. The plate is measured twice with the excitation at 355 nm and at the emission with a delay of 100 ns and a gate of 100 ns, total exposure time 10 s at 730 (bandwidth 30 nm) or 645 nm (bandwidth 75 nm), respectively. The FRET signal is calculated as follows: FRET=T730-Alexa730-P(T645-B645) with P=Ru730-B730/Ru645-B645, where T730 is the test well measured at 730 nM, T645 is the test well measured at 645 nm, B730 and B645 are the buffer controls at 730 nm and 645 nm, respectively. cAMP content is determined from the function of a standard curve spanning from 10 μM to 0.13 nM cAMP.
(§2) EC50 values were determined using Activity Base analysis (ID Business Solution, Limited). The EC50 values for a wide range of cannabinoid agonists generated from this assay were in agreement with the values published in the scientific literature.
In general terms: cAMP levels reflect the balance of adenylyl cyclase and phosphodiesterase activity.

A further assay addresses human CB1 receptors (Homo sapiens (Human), UniProt P21554). In words: functional cAMP assay, CHO cells expressing human CB1. The class given is cell-based. The method, then: as §1, §2
Setting [1] is: functional cAMP assay, CHO cells expressing human CB1; read-out: Human CB1 EC50.
Where [2] appears, read: read-out: Human CB1 EC50; functional cAMP assay, CHO cells expressing human CB1.
The mark [3] stands for this setting: Human CB1 EC50 (uM), functional cAMP assay, CHO cells expressing human CB1.

Chain of human CB2 receptors (P34972 whole entry): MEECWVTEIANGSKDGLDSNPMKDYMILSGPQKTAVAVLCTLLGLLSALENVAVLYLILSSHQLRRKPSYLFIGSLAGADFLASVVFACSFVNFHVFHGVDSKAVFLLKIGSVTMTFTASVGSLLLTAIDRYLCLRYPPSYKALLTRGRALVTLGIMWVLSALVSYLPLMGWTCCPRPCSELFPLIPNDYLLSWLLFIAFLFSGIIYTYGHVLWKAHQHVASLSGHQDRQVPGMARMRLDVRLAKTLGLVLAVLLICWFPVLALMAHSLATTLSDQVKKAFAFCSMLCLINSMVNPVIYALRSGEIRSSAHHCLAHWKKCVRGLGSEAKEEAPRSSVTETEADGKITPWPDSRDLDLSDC
Chain of human CB1 receptors (P21554 whole entry): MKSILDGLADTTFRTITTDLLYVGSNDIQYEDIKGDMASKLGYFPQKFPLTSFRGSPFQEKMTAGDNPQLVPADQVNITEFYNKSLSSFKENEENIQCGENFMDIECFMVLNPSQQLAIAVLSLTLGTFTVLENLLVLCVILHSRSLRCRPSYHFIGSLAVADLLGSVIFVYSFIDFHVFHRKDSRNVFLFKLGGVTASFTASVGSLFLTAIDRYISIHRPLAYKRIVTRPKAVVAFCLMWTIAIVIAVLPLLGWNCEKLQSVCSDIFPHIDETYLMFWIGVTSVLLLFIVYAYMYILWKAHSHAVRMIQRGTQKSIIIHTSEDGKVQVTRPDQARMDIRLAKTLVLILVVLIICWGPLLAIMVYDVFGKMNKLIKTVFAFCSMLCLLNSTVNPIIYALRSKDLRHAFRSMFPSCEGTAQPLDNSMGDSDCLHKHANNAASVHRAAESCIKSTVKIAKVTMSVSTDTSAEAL

Consider `C[C@H](Oc1cc(C(=O)NC2(CC(N)=O)CS(=O)(=O)C2)ncc1C1CC1)C(F)(F)F` [Example 266, N-[3-(2-amino-2-oxoethyl)-1,1-dioxothietan-3-yl]-5-cyclopropyl-4-[(2S)-1,1,1-trifluoropropan-2-yl]oxypyridine-2-carboxamide], for which the negative-log EC50 (pEC50) at human CB2 receptors was 8.80; at human CB1 receptors (setting [1]) it was less than 5.00.

Compound `Cc1nc(C(C)(NC(=O)c2cc(OCC(F)(F)F)c(C3(F)COC3)cn2)C2CC2)no1` (single isomer, unassigned) [Example 167, N-[1-cyclopropyl-1-(5-methyl-1,2,4-oxadiazol-3-yl)ethyl]-5-(3-fluorooxetan-3-yl)-4-(2,2,2-trifluoroethoxy)pyridine-2-carboxamide] showed an EC50 on human CB2 receptors of 0.0281 µM. For the same compound, the negative-log EC50 (pEC50) on human CB1 receptors (setting [2]) is less than 5.00.

Regarding `CC(C)CC(C)(CO)NC(=O)c1cc(OCC2CC2)c(Cl)cn1` (stereo not shown) [Example 25, 5-Chloro-4-cyclopropylmethoxy-pyridine-2-carboxylic acid (1-hydroxymethyl-1,3-dimethyl-butyl)-amide], the values for the pEC50 at human CB2 receptors and on human CB1 receptors (setting [1]) were 7.92 and less than 5.00, respectively.

Regarding `Cc1nc(C(C)(CC(C)(C)C)NC(=O)c2cc(OCC(F)(F)F)c(C3CC3)cn2)no1` (stereo not shown) [Example 97, 5-Cyclopropyl-4-(2,2,2-trifluoro-ethoxy)-pyridine-2-carboxylic acid [1,3,3-trimethyl-1-(5-methyl-[1,2,4]oxadiazol-3-yl)-butyl]-amide], the pEC50 is 8.23 on human CB2 receptors and less than 5.00 at human CB1 receptors (setting [1]).

Consider `Cc1nc([C@@](C)(NC(=O)c2cc(OCC(F)(F)F)c(N3CC(F)(F)C3)cn2)C2CC2)no1` (single isomer, unassigned) [Example 88, 5-(3,3-Difluoro-azetidin-1-yl)-4-(2,2,2-trifluoro-ethoxy)-pyridine-2-carboxylic acid [1-cyclopropyl-1-(5-methyl-[1,2,4]oxadiazol-3-yl)-ethyl]-amide], for which the values for the EC50 on human CB2 receptors and on human CB1 receptors (setting [3]) were 0.0105 µM and 1.79 µM, respectively.

For `Cc1nc(C(C)(CO)NC(=O)c2cc(OCC(F)(F)F)c(C3CC3)cn2)no1` (stereo not shown) [Example 113, 5-cyclopropyl-N-[1-hydroxy-2-(5-methyl-1,2,4-oxadiazol-3-yl)propan-2-yl]-4-(2,2,2-trifluoroethoxy)pyridine-2-carboxamide], the pEC50 at human CB2 receptors was 6.58; on human CB1 receptors (setting [1]), less than 5.00.

For `CC(C)(C)C(NC(=O)c1cc(OCC(F)(F)F)c(N2CC(F)(F)C2)cn1)C(N)=O` (stereo not shown) [Example 256, N-(1-amino-3,3-dimethyl-1-oxobutan-2-yl)-5-(3,3-difluoroazetidin-1-yl)-4-(2,2,2-trifluoroethoxy)pyridine-2-carboxamide], the pEC50 is 7.88 at human CB2 receptors and less than 5.00 at human CB1 receptors (setting [1]).

On to `Cc1nc(C(C)(NC(=O)c2cc(OCC(F)(F)F)c(C3(F)CCC3)cn2)C2CC2)no1` (single isomer, unassigned) [Example 307, N-(1-cyclopropyl-1-(5-methyl-1,2,4-oxadiazol-3-yl)ethyl)-5-(1-fluorocyclobutyl)-4-(2,2,2-trifluoroethoxy)picolinamide], for which the values for the EC50 at human CB2 receptors and at human CB1 receptors (setting [3]) were 0.0034 µM and 0.032 µM, respectively.

On to `CC(CF)Oc1cc(C(=O)NC(C)(CC(N)=O)C2CC2)ncc1C1CC1` (single isomer, unassigned) [Example 302, N-(4-amino-2-cyclopropyl-4-oxobutan-2-yl)-5-cyclopropyl-4-(1-fluoropropan-2-yloxy)picolinamide], for which the EC50 at human CB2 receptors was found to be 0.001 µM; at human CB1 receptors (setting [3]), 0.869 µM.

For `Cc1nnc(C(C)(CC2CC2)NC(=O)c2cc(OCC(F)(F)F)c(C3CC3)cn2)o1` (single isomer, unassigned) [Example 184, 5-cyclopropyl-N-[1-cyclopropyl-2-(5-methyl-1,3,4-oxadiazol-2-yl)propan-2-yl]-4-(2,2,2-trifluoroethoxy)pyridine-2-carboxamide], the EC50 at human CB2 receptors is 0.0856 µM; on human CB1 receptors (setting [3]), more than 10 µM.

For the compound `CC[C@](C)(CO)NC(=O)c1cc(OCC2CC2)c(Cl)cn1` [Example 30, (−)-5-Chloro-4-cyclopropylmethoxy-pyridine-2-carboxylic acid (1-hydroxymethyl-1-methyl-propyl)-amide], the values for the pEC50 on human CB2 receptors and on human CB1 receptors (setting [1]) were 7.72 and less than 5.00, respectively.

As to `CC(C)[C@](C)(CO)NC(=O)c1cc(OCC2CC2)c(Cl)cn1` [Example 14, 5-Chloro-4-cyclopropylmethoxy-pyridine-2-carboxylic acid ((R)-1-hydroxymethyl-1,2-dimethyl-propyl)-amide], the pEC50 on human CB2 receptors is 7.89; at human CB1 receptors (setting [1]) it was 5.16.

For `C[C@H](Oc1cc(C(=O)NC(c2noc(N)n2)C(C)(C)C)ncc1C1CC1)C(F)(F)F` (stereo partly drawn) [Example 213, N-[1-(5-amino-1,2,4-oxadiazol-3-yl)-2,2-dimethylpropyl]-5-cyclopropyl-4-[(2S)-1,1,1-trifluoropropan-2-yl]oxypyridine-2-carboxamide], the pEC50 on human CB2 receptors was 7.95; on human CB1 receptors (setting [1]), less than 5.00.

Take `Cc1nc(C(C)(CS(C)(=O)=O)NC(=O)c2cc(O[C@@H](C)C(F)(F)F)c(C3(F)CCC3)cn2)no1` (stereo partly drawn) [Example 137, 5-(1-fluorocyclobutyl)-N-[2-(5-methyl-1,2,4-oxadiazol-3-yl)-1-methylsulfonylpropan-2-yl]-4-[(2S)-1,1,1-trifluoropropan-2-yl]oxypyridine-2-carboxamide]: the pEC50 on human CB2 receptors is 7.98; at human CB1 receptors (setting [1]) it was less than 5.00.

For the compound `CC(C)(CO)CNC(=O)c1cc(OCC2CC2)c(Cl)cn1` [Example 17, 5-Chloro-4-cyclopropylmethoxy-pyridine-2-carboxylic acid (3-hydroxy-2,2-dimethyl-propyl)-amide], the pEC50 at human CB2 receptors is 7.33; at human CB1 receptors (setting [1]) it was less than 5.00.

Take `O=C(NC1(CO)CC1)c1cc(OCC2CC2)c(N2CC(F)(F)C2)cn1` [Example 53, 4-Cyclopropylmethoxy-5-(3,3-difluoro-azetidin-1-yl)-pyridine-2-carboxylic acid (1-hydroxymethyl-cyclopropyl)-amide]: the pEC50 on human CB2 receptors is 7.14; on human CB1 receptors (setting [1]) it was less than 5.00.

As for `CC(C)C[C@H](NC(=O)c1cc(OCC(F)(F)F)c(C2CC2)cn1)C(N)=O` [Example 52, 5-Cyclopropyl-4-(2,2,2-trifluoro-ethoxy)-pyridine-2-carboxylic acid ((S)-1-carbamoyl-3-methyl-butyl)-amide], the negative logarithm of the EC50 (pEC50) was 7.11 on human CB2 receptors and less than 5.00 at human CB1 receptors (setting [1]).

In the case of `CC(C)(C)C(NC(=O)c1cc(OCC(F)(F)F)c(C2CC2)cn1)c1noc(N)n1` (single isomer, unassigned) [Example 227, N-[1-(5-amino-1,2,4-oxadiazol-3-yl)-2,2-dimethylpropyl]-5-cyclopropyl-4-(2,2,2-trifluoroethoxy)pyridine-2-carboxamide], on human CB2 receptors, a half-maximal response (EC50) required 0.015 µM. Besides, on human CB1 receptors (setting [2]), the pEC50 is less than 5.00.

In the case of `Cn1nnnc1C(C)(CC1CC1)NC(=O)c1cc(OCC(F)(F)F)c(C2CC2)cn1` (single isomer, unassigned) [Example 228, 5-cyclopropyl-N-[1-cyclopropyl-2-(1-methyltetrazol-5-yl)propan-2-yl]-4-(2,2,2-trifluoroethoxy)pyridine-2-carboxamide], the EC50 was 0.0346 µM at human CB2 receptors and more than 10 µM on human CB1 receptors (setting [3]).

Consider `Cc1nc(C(C)(CS(C)(=O)=O)NC(=O)c2cc(OCC(F)(F)F)c(N3CC(F)(F)C3)cn2)no1` (stereo not shown) [Example 95, 5-(3,3-Difluoro-azetidin-1-yl)-4-(2,2,2-trifluoro-ethoxy)-pyridine-2-carboxylic acid [2-methanesulfonyl-1-methyl-1-(5-methyl-[1,2,4]oxadiazol-3-yl)-ethyl]-amide], for which the figures for the pEC50 at human CB2 receptors and at human CB1 receptors (setting [1]) were 7.26 and less than 5.00, respectively.

As to `Cc1nc(C(C)(CS(C)(=O)=O)NC(=O)c2cc(OCC(F)(F)F)c(C3CCC3)cn2)no1` (single isomer, unassigned) [Example 124, 5-cyclobutyl-N-[1-methyl-1-(5-methyl-1,2,4-oxadiazol-3-yl)-2-methylsulfonyl-ethyl]-4-(2,2,2-trifluoroethoxy)pyridine-2-carboxamide], the concentration for a half-maximal effect (EC50) at human CB2 receptors was 0.0159 µM; at human CB1 receptors (setting [3]), more than 10 µM.

At human CB2 receptors, `Cn1nnnc1C(NC(=O)c1cc(OCC(F)(F)F)c(C2CC2)cn1)C(C)(C)C` (stereo not shown) [Example 164, 5-cyclopropyl-N-[2,2-dimethyl-1-(1-methyltetrazol-5-yl)propyl]-4-(2,2,2-trifluoroethoxy)pyridine-2-carboxamide] returned a concentration for a half-maximal effect (EC50) of 0.0168 µM.
